The values below come from the NIST ThermoML archive (doi:10.1021/je049874h).

For the series the following is noted: Liquid.

The structures appear in SMILES notation. ± gives the expanded uncertainty stated by the source.

Take `CCCC` [butane]: the vapor or sublimation pressure (in general, the pressure of vapour in equilibrium with the condensed phase) worked out at 69.6 ± 2 kPa (263.15 K), 125.1 ± 2 kPa (278.15 K) and 209.4 ± 2.1 kPa (293.15 K).
`FCF` [difluoromethane]: the “vapor or sublimation pressure” value is reported as 580.2 ± 2.8 kPa (263.15 K), 949.6 ± 3.6 kPa (278.15 K) and 1473.2 ± 4.8 kPa (293.15 K).
